Our source for the GI50 and TGI values is PubChem BioAssay (NCI).

Some test systems named below: DU-145 prostate; SK-MEL-2 melanoma; SNB-75 CNS; MDA-MB-435; UACC-62 melanoma; SF-539 CNS; HCT-116 colon; RPMI-8226 leukemia; MALME-3M melanoma; T-47D breast.
Assay in all cases: growth of human tumour cells (NCI), 48 h

Molecules are shown by their SMILES.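 Growth conditions: 96-well plates. Treatment: test compound, 48 hours, 5 concentrations. Analysis: linear interpolation between bracketing concentrations; unreached endpoints set to highest concentration. GI50 = concentration required for 50% inhibition of growth. TGI: concentration producing complete growth inhibition.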

As for `CC(C)=CCC[C@](C)(O)[C@H]1CC[C@]2(C)[C@@H]1CC[C@@H]1[C@@]3(C)CC/C(=N/O)C(C)(C)[C@@H]3CC[C@]12C`, the GI50 with DU-145 prostate is 13.8 µM; in the assay on SK-MEL-2 melanoma, 15.3 µM; in the assay with SNB-75 CNS, 25.4 µM; with MDA-MB-435, 21.4 µM; in the assay with UACC-62 melanoma, 17.8 µM; in the assay on SF-539 CNS, 24.3 µM. Also, the GI50 in the assay with HCT-116 colon is 4.13 µM; in the assay with RPMI-8226 leukemia, 7.68 µM; in the assay on MALME-3M melanoma, 8.25 µM; in the assay with T-47D breast it was 2.86 µM. The TGI was greater than 100 µM in the assay on DU-145 prostate; 60.5 µM in the assay on SK-MEL-2 melanoma; greater than 100 µM in the assay on SNB-75 CNS; greater than 100 µM in the assay with MDA-MB-435; greater than 100 µM in the assay with UACC-62 melanoma; greater than 100 µM in the assay on SF-539 CNS. Moreover, the TGI in the assay with HCT-116 colon was 27.2 µM; in the assay on RPMI-8226 leukemia, greater than 100 µM; with MALME-3M melanoma, 32.6 µM; in the assay with T-47D breast it was 88.1 µM.
In the case of `O=C(Cc1ccc(F)c(F)c1)Nc1cc(C2(C(F)(F)F)CC2)nn1Cc1ccccc1`, the GI50 is 5.34 µM in the assay on DU-145 prostate; 4.4 µM with SK-MEL-2 melanoma; 0.747 µM in the assay with SNB-75 CNS; 3.67 µM in the assay with MDA-MB-435; 4.33 µM in the assay with UACC-62 melanoma; 4.33 µM in the assay on SF-539 CNS. For the same compound, the GI50 with HCT-116 colon was 4.28 µM; in the assay with RPMI-8226 leukemia it was 2.82 µM; in the assay on MALME-3M melanoma it was 2.49 µM; in the assay with T-47D breast it was 2.96 µM. Besides, the TGI in the assay with DU-145 prostate was greater than 15 µM; in the assay on SK-MEL-2 melanoma, greater than 15 µM; in the assay on SNB-75 CNS, 7.09 µM; with MDA-MB-435, 11.4 µM; in the assay with UACC-62 melanoma it was greater than 15 µM; in the assay with SF-539 CNS it was greater than 15 µM. Also, the TGI is greater than 15 µM in the assay on HCT-116 colon, 8.67 µM in the assay on RPMI-8226 leukemia, 7.85 µM in the assay on MALME-3M melanoma and 13 µM in the assay with T-47D breast.
For `c1ccc(CN2COc3c(ccc4c3OCN(Cc3ccccc3)C4)C2)cc1`, the GI50 in the assay on DU-145 prostate was 0.569 µM; in the assay on SK-MEL-2 melanoma, 3.98 µM; in the assay on SNB-75 CNS, 2.09 µM; with MDA-MB-435, 1.72 µM; with UACC-62 melanoma it was 0.937 µM; in the assay on SF-539 CNS, 1.45 µM. The GI50 is 0.535 µM in the assay with HCT-116 colon, 1.41 µM with RPMI-8226 leukemia, 3.06 µM with MALME-3M melanoma and 0.96 µM with T-47D breast. In addition, the TGI with DU-145 prostate is greater than 100 µM; with SK-MEL-2 melanoma, greater than 100 µM; in the assay on SNB-75 CNS it was greater than 100 µM; with MDA-MB-435 it was greater than 100 µM; in the assay with UACC-62 melanoma, 4.24 µM; in the assay on SF-539 CNS, 6.41 µM. Besides, the TGI in the assay with HCT-116 colon, in the assay on RPMI-8226 leukemia, with MALME-3M melanoma and in the assay with T-47D breast was greater than 100 µM each time.
As for `CC(C)O/N=C/c1cc(NC(=S)OC(C)C)ccc1Cl`, the TGI in the assay on DU-145 prostate is greater than 100 µM; with SK-MEL-2 melanoma, greater than 61.7 µM; with SNB-75 CNS, 57.2 µM; in the assay with MDA-MB-435, greater than 100 µM; with UACC-62 melanoma, greater than 69.3 µM; in the assay with SF-539 CNS it was greater than 78.8 µM. Further, the TGI in the assay with HCT-116 colon is greater than 74.3 µM; with RPMI-8226 leukemia it was 54.2 µM; with MALME-3M melanoma, greater than 100 µM; with T-47D breast, greater than 100 µM.
In the case of `CC(=O)C1=C(O)C=C2Oc3c(C(=O)/C=C/c4c(Cl)cccc4Cl)c(O)c(C)c(O)c3[C@]2(C)C1=O`, the GI50 is 0.966 µM with DU-145 prostate; 0.64 µM in the assay with SK-MEL-2 melanoma; 2.12 µM in the assay with SNB-75 CNS; 1.81 µM in the assay with MDA-MB-435; 0.677 µM in the assay with UACC-62 melanoma; 2.19 µM in the assay with SF-539 CNS. Besides, the GI50 is 0.536 µM in the assay with HCT-116 colon, 0.5 µM in the assay on RPMI-8226 leukemia, 2.1 µM in the assay with MALME-3M melanoma and 0.38 µM with T-47D breast. Moreover, the TGI with DU-145 prostate turned out to be 6.31 µM; in the assay with SK-MEL-2 melanoma it was 2.87 µM; with SNB-75 CNS it was 4.76 µM; in the assay on MDA-MB-435 it was 3.82 µM; in the assay on UACC-62 melanoma it was 2.8 µM; in the assay on SF-539 CNS, 4.91 µM. Besides, the TGI with HCT-116 colon came to 2.7 µM; in the assay with RPMI-8226 leukemia, 1.77 µM; in the assay with MALME-3M melanoma it was 4.96 µM; with T-47D breast, 2.41 µM.
On to `CO/N=C(\C)c1ccc(Nc2cc(-c3ccccc3)nc3ccc(OC)cc23)cc1`, for which the GI50 in the assay with DU-145 prostate is 5.36 µM; with SK-MEL-2 melanoma it was 6.27 µM; in the assay with SNB-75 CNS it was 23 µM; in the assay on MDA-MB-435 it was 1.76 µM; with UACC-62 melanoma, 1.97 µM; with SF-539 CNS it was 2.72 µM. In addition, the GI50 is 1.76 µM with HCT-116 colon, 2.79 µM with RPMI-8226 leukemia, 1.78 µM in the assay on MALME-3M melanoma and 33.7 µM in the assay on T-47D breast. Besides, the TGI in the assay on DU-145 prostate was 21.3 µM; with SK-MEL-2 melanoma, greater than 100 µM; with SNB-75 CNS it was greater than 100 µM; with MDA-MB-435 it was 3.46 µM; with UACC-62 melanoma it was 4.41 µM; with SF-539 CNS, 4.74 µM. In addition, the TGI in the assay on HCT-116 colon is 3.77 µM; with RPMI-8226 leukemia it was 9.64 µM; in the assay on MALME-3M melanoma, 4.85 µM; with T-47D breast, greater than 100 µM.
As for `NCCCCCCCn1c2c(c3ccccc3c1=O)C(=O)c1ccccc1-2`, the GI50 was 0.915 µM in the assay on DU-145 prostate; 2.33 µM with SK-MEL-2 melanoma; 2.17 µM in the assay with SNB-75 CNS; 1.98 µM with MDA-MB-435; 2.01 µM in the assay on UACC-62 melanoma; 1.66 µM in the assay with SF-539 CNS. The GI50 was 1.42 µM with HCT-116 colon, 1.09 µM in the assay with RPMI-8226 leukemia, 1.98 µM in the assay with MALME-3M melanoma and 2.01 µM in the assay on T-47D breast. Further, the TGI with DU-145 prostate was found to be 2.12 µM; in the assay with SK-MEL-2 melanoma it was 5.68 µM; with SNB-75 CNS, 4.55 µM; in the assay with MDA-MB-435, 4.06 µM; with UACC-62 melanoma, 3.85 µM; in the assay on SF-539 CNS it was 3.09 µM. Besides, the TGI worked out at 2.81 µM in the assay on HCT-116 colon, 2.62 µM with RPMI-8226 leukemia, 4.01 µM with MALME-3M melanoma and 4.27 µM with T-47D breast.
